# Source: patent publication US4000297A, “N-p-chlorobenzoyl tryptophane, salts and compositions thereof” (priority 1971, dated 1976)
# Where a name gives a salt, the structure may show the parent alone. Read-outs that look alike come from different tables or passages of the source.
# Columns and labels:
# [1] = Tolerability in humans, prolonged oral administration; type: in vivo; settings: several weeks, 500 to 1600 mg
# [2] = Stability in conventional preservation tests and light sensitiveness; type: physicochemical; settings: oral forms (capsules, tablets)
# gastric secretion [3] = assay: Comparison of antisecretive activity, rats with tied pylorus, oral aqueous suspension; type: in vivo; settings: oral; for ED50: Rattus norvegicus, po, read-out: Antisecretive activity (dose which reduces the gastric secretion by 50%)
# Method: (*)The antisecretive activity is defined as the dose in mg/kg of body
# weight of the animal, which reduces the gastric secretion by 50%. The
# evaluation is effected by considering the decrease in quantity of secrete
# gastric juice as compared with controls. Rats of an average weight of 200
# ± 20 grams are employed of which the lower part of the stomach at the
# level of the pylorus is tied to collect the gastric juice during the
# indicated periods. The preparations are administered orally in the form o
# [4] = system: gastric lesions from Indomethacin; assay: Protective activity against gastric lesions due to Indomethacin; type: in vivo, rats; settings: oral; for ED50: Rattus norvegicus, po, 4 h, read-out: Protective activity ED50
# Method: The activity is defined as the dose in mg/kg of body weight to the animal, which prevents in 50% of the treated subjects arising of lesions due to Indomenthacin.
# The protective preparations are administered orally in aqueous suspension.
# Solubility = type: physicochemical; settings: for Solubility in water: in words
# [5] = system: transit through the stomach and intestine; assay: Anti-spastic activity, vegetable carbon (charcoal) test, rate of transit through the stomach and intestine; type: in vivo, mice; settings: for Antispastic activity, in words: in vivo; for ED50: Mus musculus, 2 h; for Ratio 3/2: anti-secretive ED50 / anti-spastic ED50 (Table 3)
# Method: Particularly marked is the anti-spastic activity which the present compounds exercise on the entire digestive system. Measured in the mouse, using the vegetable carbon test (rate of transit through the stomach and intestine), this activity is in some cases comparatively greater than the anti-secretive activity (Table 3).
# (*)The antispastic activity is measured in mice of an average weight of […]
# ± 3 g by administering a suspension of charcoal in gum arabic and
# checking after two hours whether the charcoal has reached the initial
# portion of the colon. In non-treated subjects the charcoal reaches this
# transit of the charcoal. Evaluation of the results is effected as
# ED50 in mg/kg body weight of the animal, i.e., the dose at which the […]
# gastric secretion [6] = assay: Anti-secretive activity in the rat with lig. pylorus, iv; type: in vivo; settings: for Therapeutic coefficient iv. 2/3: DL50 iv / ED50 iv (Table 2)
# gastric secretion [7] = assay: Anti-secretive activity in the rat by gastric stimulus, oral; type: in vivo; settings: oral (Table 1), read-out: Activity B: anti-secretive activity ED50
# Method: *3 Anti-secretive activity in the rat by gastric stimulus, ED50 mg/k
# [8] = dog, in vivo, po
# gastric secretion [9] = assay: Anti-secretive activity, oral (comparison of iv and oral therapeutic coefficient); type: in vivo; settings: oral (Table 2)
# From the text: | *6 Anti-secretive activity ED50 oral | *7 Therapeutic coefficient oral
# [10] = rat, in vivo, po
# [11] = Acute toxicity (DL50) in the mouse; type: in vivo; settings: in vivo
# From the text: *1 DL50 in the mouse mg/kg iv.
# Examples of differences between toxicity (DL50 in
# the mouse) by intravenous administration and oral
# administration in mg/kg. Variation in therapeutic
# [12] = Rattus norvegicus, iv, i.v. (Table 2), read-out: Anti-secretive activity ED50 i.v.
# [13] = rat with lig. pylorus, iv (Table 1), read-out: Activity A: anti-secretive activity ED50
# [14] = mouse, vegetable carbon test (Table 3), read-out: Anti-spastic activity ED50
# [15] = po, charcoal after two hours, orally (later Table 3), read-out: Antispastic activity ED50
# [16] = iv (Table 1), read-out: DL50 value
# [17] = oral (Table 2), read-out: DL50 oral
# [18] = Rattus norvegicus, iv, read-out: Activity A: anti-secretive activity ED50
# [19] = Rattus norvegicus, iv, read-out: Anti-secretive activity ED50 i.v.
# [20] = iv, iv (Table 1), read-out: DL50 value
# [21] = Rattus norvegicus, iv, read-out: Anti-secretive activity ED50
SMILES,Therapeutic coefficient iv. 2/3 (gastric secretion [6]; iv),"ED50 (gastric secretion [3]; 2.5 h, 2.5 hrs)","ED50 (gastric secretion [3]; 5 h, 5 hrs)","ED50 (gastric secretion [3]; 10 h, 10 hrs)",ED50 ([4]; Indomethacin 16 mg/kg orally),ED50 (gastric secretion [7]),ED50 (gastric secretion [9]),Therapeutic coefficient oral (gastric secretion [9]),"ED50 [5, 14]","ED50 [5, 15]",Ratio 3/2 [5],ED50 (gastric secretion [6]; [18]),ED50 (gastric secretion [6]; [19]),"ED50 (gastric secretion [3]; 15 h, 15 hrs)","LD50 [11, 20]",other results
"O=C(N[C@@H](Cc1c[nH]c2ccccc12)C(=O)O)c1ccc(Cl)cc1 [CR 501 calcium salt, N-p-chloro-benzoyl-L-tryptophane calcium salt]",,,,,,,,,,,,,,,,"Side effects in humans [1]: does not lead to any specific side effect; Light sensitiveness [2]: absence of light sensitiveness; Stability on conventional preservation tests [2]: thorough stability; Antisecretive activity (dose which reduces the gastric secretion by 50%) (gastric secretion [3]; 2.5 hrs, calcium salt, 150 min): 210 mg/kg; Antisecretive activity (dose which reduces the gastric secretion by 50%) (gastric secretion [3]; 5 hrs, calcium salt, 300 min): 165 mg/kg; Antisecretive activity (dose which reduces the gastric secretion by 50%) (gastric secretion [3]; 10 hrs, calcium salt, 600 min): 142 mg/kg; Antisecretive activity (dose which reduces the gastric secretion by 50%) (gastric secretion [3]; 15 hrs, calcium salt, 900 min): 170 mg/kg; Protective activity ED50 ([4]; Indomethacin 16 mg/kg orally, 240 min, calcium salt): 145 mg/kg/os; Solubility in acetone (Solubility; acetone): soluble; Solubility in ethanol (Solubility; ethanol, listed as Example 53, calcium salt): soluble; Solubility in methanol (Solubility; methanol, listed as Example 53, calcium salt): soluble; Solubility in water (Solubility; listed as Example 53, calcium salt): Very slightly soluble; Antispastic activity ED50 ([5]; charcoal after two hours, orally (later Table 3), 120 min, calcium salt, 120 min): 210 mg/kg; Antispastic activity, in words ([5]; mouse, calcium salt): more particularly effective as antispastic"
"O=C(N[C@@H](Cc1c[nH]c2ccccc12)C(=O)O)c1ccc(Cl)cc1 [Ex.18 (CR501), N-p-chloro-benzoyl-L-tryptophane]",1.9,171 mg/kg,143 mg/kg,150 mg/kg,234 mg/kg,110 mg/kg,150 mg/kg,7.3,82 mg/kg,248 mg/kg,1.7,,,,,"ED50 (gastric secretion [6]; Rattus norvegicus, iv, compared with anti-spastic activity (Table 3), read-out: Anti-secretive activity ED50): 139 mg/kg; ED50 (gastric secretion [6]; [12]): 139 mg/kg; ED50 (gastric secretion [6]; [13]): 139 mg/kg; Start of antisecretive activity from administration (gastric secretion [3]): < 5 h; Antisecretive activity (dose which reduces the gastric secretion by 50%) (gastric secretion [3]; 15 hrs, 900 min): 361 mg/kg; Extent in time of antisecretive activity (gastric secretion [3]; with a gradual sinking): up to 15 hours; Protective activity against Indomethacin lesions, in words [4]: efficient activity in preventing gastric lesions; Acute and chronical toxicity [8]: without exhibiting any appreciable symptom of toxicity; Acute and chronical toxicity [10]: without exhibiting any appreciable symptom of toxicity; Solubility in water (Solubility; listed as CR 501): water-insoluble; Solubility in water (Solubility; listed as CR501): insoluble in water; Antispastic activity, in words ([5]; mouse): active as antispastic; LD50 [11, 16]: 263 mg/kg; LD50 [11, 17]: 1100 mg/kg"
"Cc1ccc(C(=O)N[C@@H](Cc2c[nH]c3ccccc23)C(=O)O)cc1 [Ex.21 (CR510), N-p-toluyl-L-tryptophane]",3.8,490 mg/kg,407 mg/kg,346 mg/kg,382 mg/kg,318 mg/kg,346 mg/kg,5.8,,487 mg/kg,,184 mg/kg,184 mg/kg,583 mg/kg,,"LD50 [11, 16]: 700 mg/kg; LD50 [11, 17]: 2000 mg/kg"
"COc1ccc(COC(=O)N[C@@H](Cc2c[nH]c3ccccc23)C(=O)O)cc1 [Ex.32 (CR462), N-p-methoxy-carbobenzoxy-L-tryptophane]",3.2,,,,,114 mg/kg,142 mg/kg,,,,,,,,430 mg/kg,ED50 (gastric secretion [6]; [12]): 133 mg/kg; ED50 (gastric secretion [6]; [13]): 146 mg/kg
"O=C(N[C@@H](Cc1c[nH]c2ccccc12)C(=O)O)OCc1ccc(Cl)cc1 [Ex. 1 (CR449), N-p-chloro-carbobenzoxy-L-tryptophane]",1.8,121 mg/kg,98 mg/kg,115 mg/kg,182 mg/kg,127 mg/kg,154 mg/kg,9.1,72 mg/kg,,1.8,131 mg/kg,131 mg/kg,155 mg/kg,240 mg/kg,"ED50 (gastric secretion [6]; [21]): 131 mg/kg; LD50 ([11]; po, oral (Table 2), read-out: DL50 oral): 1410 mg/kg"
"O=C(N[C@@H](Cc1c[nH]c2ccccc12)C(=O)O)OCc1ccc(Br)cc1 [Ex. 6 (CR451), N-p-bromo-carbobenzoxy-L-tryptophane]",1.9,180 mg/kg,148 mg/kg,,335 mg/kg,77 mg/kg,133 mg/kg,,,275 mg/kg,,92.1 mg/kg,99 mg/kg,405 mg/kg,125 mg/kg,"Antisecretive activity (dose which reduces the gastric secretion by 50%) (gastric secretion [3]; 10 hrs, listed as CR 451 (Ex. 6), 600 min): 133 mg/kg; LD50 ([11]; iv, iv (Table 2), read-out: DL50 iv): 185 mg/kg"
"Cc1ccc(COC(=O)N[C@@H](Cc2c[nH]c3ccccc23)C(=O)O)cc1 [Ex. 9 (CR454), N-p-methyl-carbobenzoxy-L-tryptophane]",1.9,,,,,125 mg/kg,268 mg/kg,,120 mg/kg,,1.6,187 mg/kg,166 mg/kg,,320 mg/kg,ED50 (gastric secretion [6]; [21]): 187 mg/kg
